# From patent US6403637B1, “Methods of modulating matrix metalloproteinase activity and uses thereof” (priority 1999, dated 2002)
# Columns and labels:
# [1] = test system: human chondrocytes; assay: Binding of 125I collagenase-3 to human chondrocytes; conditions: osteoarthritis chondrocytes, 10 μM b.i.d. for three days; p<0.05
# Method: (§1) For all binding experiments, cells were seeded into 2.0 cm^2 wells. After the cells reached approximately 95% confluence, the medium was replaced with fresh medium containing 1 mg/ml BSA and the cells were assayed for binding 4 h later. The cells were first washed with maintenance medium, then incubated in the same medium with 0.01% Tween 80 containing ^125I-rat collagenase-3 or other iodinated ligands at 4° C. for 2 h. Non-specific binding was assessed by adding a 50-100-fold excess of cold ligand to half the wells, while an equivalent volume of buffer was added to the remaining wells. After incubation, the wells were washed three times with ice-cold MEM (0.5 ml). The cells were then lysed with 500 μl of 1 M NaOH and the lysates were counted on a gamma counter. Protein labeling with ^125I was done using the chloramine T method (Greenwood et al., 1963, Biochem. J. 89:114). The proteins had specific activities ranging from 9 to 27 μCi/μg.
# (§2) Human tissue (articular cartilage and synovium) was obtained at surgery or autopsy and was prepared as follows. Tissue was minced in a laminar flow hood, then incubated in sterile filtered serum-free Dulbecco's modified Eagle's medium (50 ml) containing trypsin (0.25%) for 1 h at 37° C. on an orbital shaker. […]
# [2] = test system: human chondrocytes; assay: Excretion of degraded (TCA-soluble) 125I-collagenase-3 from human chondrocytes; assay type: cell-based
# Method: (§3) Excretion of degraded matrix metalloproteinase is preferably evaluated by performing steps (a) through (e) of the internalization assay described above, collecting the media overlying the cells after incubating for 15 min to I hr, precipitating intact proteins from the collected media (e.g., incubating for 2 hr with 20% trichloroacetic acid in ethanol and 2% bovine serum albumin), pelleting the precipitated intact proteins, and measuring the label in the supernatant (e.g., by gamma counting ^125I).
# as §2
# (§4) As receptor-mediated processing of collagenase-3 culminates in lysosomal degradation and extracellular release of the ligand, binding and degradation assays as above were performed and measured the presence of degraded (TCA-soluble) ^125I-collagenase-3 in the media overlying cells. […]
# [3] = test system: normal rat osteoblasts; assay: Internalization of 125I-rat collagenase-3 in normal rat osteoblasts; assay type: cell-based; set-up: reduction of intracellular accumulation of 125I-collagenase: dose or concentration left out as unconfirmed
# Method: Previous work has shown that the rat collagenase-3 endocytosis receptor system is present on UMR 106-01 rat osteosarcoma cells (Omura et al, 1994, J. Biol. Chem. 269:24994). To determine whether the receptor is present in other cells, several cell types were tested for their ability to bind rat collagenase-3. These cell types were normal rat osteoblasts, rat embryo fibroblasts, the rat epithelial breast carcinoma cell line BC-1, mouse NIH 3T3 fibroblasts, the human osteosarcoma cell line SAOS-2, and the rat osteosarcoma cell lines ROS 17/2.8 and UMR 106-01. The human osteosarcoma cell line SAOS-2 (ATCC HTB 85) and the mouse embryo fibroblast cell line NIH 3T3 (ATCC CRL 1658) were cultured according to recommendations of the American Type Culture Collection, Rockville, Md. UMR 106-01 rat osteosarcoma cells were cultured as described in Roswit et al., 1992, Arch. Biochem. Biophys. […]
# Although the low density lipoprotein receptor-related protein is not required for rat collagenase-3 binding to the cell, it might be required for ligand internalization. […] The cell suspension was then centrifuged, and the radioactivity associated with cell pellets (defining internalized ^125I-proteins) was measured at each time point.
# The ability of receptor-associated protein to inhibit internalization of ^125I-rat collagenase-3 in UMR 106-01 osteoblastic cells and normal rat osteoblasts was determined next. […]
# [4] = test system: UMR 106-01 cells; assay: Internalization assay in UMR 106-01 cells; assay type: cell-based, rat; set-up: reduction of intracellular accumulation of 125I-collagenase: dose or concentration left out as unconfirmed
# Method: (§5) Although the low density lipoprotein receptor-related protein is not required for rat collagenase-3 binding to the cell, it might be required for ligand internalization. Therefore, internalization assays were performed with ^125I-rat collagenase-3 using MEF-1 and MEF-2 cells as follows. After binding 125I-rat labeled proteins as above, the cells were washed three times with cold modified Eagle's media (0.5 ml) to remove unbound ligand. The cells were then warmed to 37° C. by the addition of prewarmed modified Eagle's media (0.25 ml), and incubated at 37° C. for selected intervals. At each time point, the media were collected, and the cells were washed once with ice-cold MEM, then incubated with 0.25% Pronase®-E in modified Eagle's media for 15 min at 4° C. to strip cell surface proteins. The cell suspension was then centrifuged, and the radioactivity associated with cell pellets (defining internalized ^125I-proteins) was measured at each time point.
# It is known that RAP inhibits internalization of ligands by the low density lipoprotein receptor-related protein (Kounnas et al., 1996, J. Biol. Chem 271:6523). Therefore, internalization assays were performed using ^125I-labeled rat collagenase-3 as a ligand and receptor-associated protein as a competitor. Human receptor-associated protein from the pGEX-receptor-associated protein expression vector (provided by Dr. Joachim Herz, University of Texas Southwestern Medical Center, Dallas, Tex.) was expressed in bacteria and prepared as described in Herz et al., 1991, J. Biol. Chem. 266:21232.
# To investigate the mechanism by which RAP regulates internalization of collagenase-3, an experiment was performed where excess unlabeled RAP or rat collagenase-3 was prebound to UMR 106-01 cells. Binding and internalization of ^125I-labeled rat collagenase-3 and RAP were then allowed to proceed.
# [5] = test system: human synoviocytes; assay: Excretion of degraded (TCA-soluble) 125I-collagenase-3 from human synoviocytes; assay type: cell-based
# Method: as §3, §2, §4
# [6] = test system: human chondrocytes; assay: Internalization of 125I collagenase-3 by human chondrocytes; assay type: cell-based; conditions: p<0.001
# Method: as §5
# Human tissue (articular cartilage and synovium) was obtained at surgery or autopsy and was prepared as follows. […]
# To determine whether the decreased collagenase-3 binding in osteoarthritis tissues correlated with reduced receptor function, the amount of ^125I collagenase which was internalized by osteoarthritis and control chondrocytes was determined as described in Example 1. […]
# [7] = test system: synoviocytes; assay: Internalization of 125I collagenase-3 by human synoviocytes; assay type: cell-based; conditions: compared to chondrocytes
# Method: as §5, §2
# [8] = test system: UMR 106-01 cells; assay: Competition for 125I collagenase-3 binding in UMR 106-01 cells; set-up: species or system rat; conditions: 125I-rat collagenase-3
# Method: as §1
# These proteins were used as competitors in a series of binding assays in UMR cells using ^125I mouse collagenase-3. Radioactive labeling and binding assays were performed as in Example 1.
# [9] = 3 nM 125I-rat collagenase-3 + 100 nM RAP, mean ± SEM, triplicate
"% of maximum internalization, Normal rat osteoblasts [3, 9]","reduction of intracellular accumulation of 125I-collagenase ([3]; receptor-associated protein in binding medium, normal mineralizing rat osteoblasts)",effect on excretion of collagenase-3 (in words) [5],inhibition of collagenase-3 internalization ([6]; control chondrocytes),reduction of collagenase-3 internalization ([6]; osteoarthritis chondrocytes),inhibition of collagenase-3 internalization (in words) [7],effect on excretion of collagenase-3 (in words) ([2]; chondrocytes),Compound,increase in collagenase-3 binding [1],"enhancement of excretion of degraded collagenase-3 ([2]; osteoarthritis chondrocytes, 10 μM b.i.d. for three days, p<0.02)","% of maximum internalization, UMR 106-01 rat osteoblasts [4, 9]","inhibition of internalization of 125I-rat collagenase-3 ([4]; FIG. 10, increasing concentrations of RAP)",effect of prebound excess unlabeled protein on rat collagenase-3 internalization ([4]; prebound to cells),reduction of intracellular accumulation of 125I-collagenase ([4]; receptor-associated protein in binding medium),competition with / inhibition of 125I-rat collagenase-3 binding (in words) [8]
,,,,,,,"CC[C@H](C)C(=O)O[C@H]1C[C@H](O)C=C2C=C[C@H](C)[C@H](CC[C@@H](O)C[C@@H](O)CC(=O)[O-])[C@H]21.[Na+] [pravastatin, Pravastatin sodium]",30%,over 320%,,,,,
56.99 ± 4.49%,43%,inhibited,88.2%,74.3%,similar,inhibited,RAP: human receptor-associated protein expressed in bacteria from the pGEX expression vector; inhibits ligand internalization by LRP,,,20.84 ± 1.98%,approximately 70%,inhibited,79%,does not inhibit
